Patent US20220356170A1, “SREBP INHIBITOR COMPRISING A THIOPHENE CENTRAL RING” (Capulus Therapeutics, LLC, priority 2019, published 2022)
Like-named read-outs stand apart in the source and are kept apart here.

Columns and labels:
[1] = In vivo pharmacokinetics, oral; conditions: male C57 BL/6 mice
Method: (§1) The in vivo pharmacokinetic properties of Compound 1 by both intravenous and oral administration were evaluated in male C57 BL/6 mice. The in vivo pharmacokinetic properties of Compound 2 by both intravenous and oral administration were evaluated in male C57 BL/6 mice for comparison.
(§2) Animals were housed in cages with clean bedding. Certified rodent diet was provided. Water was available ad libitum. Environmental controls for the animal room were set to maintain a temperature of 22 to 25° C., humidity of 40-70% RH, and a 12-hour light /12-hour dark cycle. Normal healthy animals certified by the attending veterinarian were selected and acclimatized for minimum three days prior to initiation of study.
(§3) Procedure for Blood Withdrawal: Mice were anesthetized using gaseous anesthesia. Blood samples were collected through a capillary, guided in retro-orbital plexus. At each time point, blood samples from 3 mice of each respective group were collected. The blood samples were collected in pre-labeled tubes. 0.2 to 0.3 mL of blood were collected from each mouse. After collection of the blood samples at each time point, the samples were stored on ice prior to centrifugation. Blood samples were centrifuged within 15 minutes to separate plasma. Centrifugations was done at 1540 rcf (5000 rpm) at 4° C. for 10 minutes. The plasma was separated and transferred to pre-labeled micro-centrifuge tubes and promptly frozen at −80±10° C. until bioanalysis was performed. Samples were identified by test item, group, animal number, and collection time point.
To evaluate pharmacokinetic properties of oral delivery, nine male C57 BL/6 mice were administered 10 mg Compound 1/kg animal weight by mouth. The concentration of Compound 1 in the plasma of the animals was evaluated at 0.25, 0.5, 1, 2, 4, 6, 8, and 24 hr by taking blood samples. Compound 2 was similarly administered for comparison.

[2] = In vivo pharmacokinetics, intravenous; conditions: male C57 BL/6 mice, dose 2.00 mg/kg (Compound 1), 2.43 mg/kg (Compound 2); for Vd: male, C57 BL/6, mouse, iv
Method: as §1, §2, §3
To evaluate pharmacokinetic properties of intravenous delivery, nine male C57 BL/6 mice were administered 2.00 mg Compound 1/kg animal weight through the tail vein. The concentration of Compound 1 in the plasma of the animals was evaluated at 0.083, 0.25, 0.5, 1, 2, 4, 8, and 24 hr by taking blood samples from the mice. Compound 2 was similarly administered for comparison.

[3] = mouse, plasma, oral, dose 10.00 mg/kg (Compound 1), 12.01 mg/kg (Compound 2)

CC(C)(CO)c1cc(-c2csc(-c3ccc(C(=O)N4CCC(O)CC4)cc3Cl)c2)ccn1 [Compound 2, reference compound]
bioavailability ([1]; mouse, plasma, oral vs intravenous): 66.6%
AUC(0-inf) [1, 3]: 9300 ng·h/mL
AUC(0-t) [1, 3]: 8060 ng·h/mL
Cmax [1, 3]: 2180 ng/mL
Tmax [1, 3]: 0.25 h
half-life [1, 3]: 9.46 h
MRT last ([1]; mouse, plasma, oral, dose 10.00 mg/kg (Compound 1), 12.01 mg/kg (Compound 2), read-out: MRT0-last): 6.61 h
AUCExtra ([1]; oral, dose 10.00 mg/kg (Compound 1), 12.01 mg/kg (Compound 2)): 13.38%
AUCExtra [2]: 0.48%
Vd ([2]; plasma, read-out: Vd): 4.55 L/kg
Vd ([2]; plasma, read-out: Vss): 2.32 L/kg
AUC(0-inf) ([2]; mouse, plasma): 2820 ng·h/mL
AUC(0-t) ([2]; mouse, plasma): 2810 ng·h/mL
C0 ([2]; mouse, plasma): 2670 ng/mL
clearance ([2]; mouse, plasma): 14.3 mL/min/kg
half-life ([2]; mouse, plasma): 3.67 h
MRT last ([2]; mouse, plasma, read-out: MRT0-last): 2.56 h
